According to patent US20230365546A1, “5-SUBSTITUTED INDOLE 3-AMIDE DERIVATIVES, PREPARATION METHOD AND USE THEREOF” (ORIGIANT PHARMACEUTICAL CO., LTD, priority 2020, published 2023):
Read-outs that look alike come from different tables or passages of the source.

What was measured:
RIPK1 = RIPK1 (Homo sapiens (Human), UniProt Q13546); test: In vitro kinase assay (Eurofins Kinase Profiler), IC50; assay type: biochemical; conditions: 0.001-10 μM, read-out: RIPK 1 (IC50)
[1] = In vivo pharmacokinetic study in rats; conditions: rat, plasma, oral, 10 mg/kg
Description: Blood was collected from rats at different times after administration at the following time points: 0.083 h, 0.25 h, 0.5 h, 1 h, 2 h, 4 h, 8 h, and 24 h after intravenous administration; 0.25 h, 0.5 h, 1 h, 2 h, 4 h, 6 h, 8 h, and 24 h after oral administration. About 0.20 mL of blood was collected via jugular vein or other suitable means for each sample at the corresponding time, with heparin sodium for anticoagulation; the blood sample was placed on ice after collection and centrifuged within 1 h to separate the plasma (centrifugation conditions: centrifugal force 6800 g, 6 min, 2-8° C.). The collected plasma samples were stored in a refrigerator at −80° C. before analysis, and the remaining plasma samples continued to be temporarily stored in the refrigerator at −80° C. for one month after analysis.
Pharmacokinetic parameters such as AUC (0-t), T1/2, Cmax, Tmax, and MRT were calculated using WinNonlin based on plasma concentration data at different time points. The plasma drug concentration-time curve was plotted with BLQ recorded as 0. For the calculation of pharmacokinetic parameters, the concentration before administration was calculated as 0; BLQ before Cmax (including “No peak”) was calculated as 0; no BLQ (including “No peak”) appeared after Cmax participated in the calculation. The experiment was completed by Shanghai Medicilon Inc.

HT-29 cells = test: Protection against programmed necrosis of HT-29 cells (TNF α/Smac mimetic/Z-VAD-FMK, CCK8); assay type: cell-based; conditions: Homo sapiens
DSS-induced colitis = test: DSS-induced mouse IBD model; conditions: 40 mg/kg oral from day 7 after 2.5% DSS
Description: Female C57BL/6 mice weighing 17-20 g were used. […] Fresh DSS solution was changed on Days 2, 4, and 6, respectively. […] The Control group was given normal drinking water daily and corresponding vehicles orally starting on day 7. Body weights and survival rates of mice were recorded daily. Survival curves were fitted using Graphpad Prism 5.0 software. Mice (2/group) were sacrificed on day 12 and observed for changes in colon length.

[2] = test system: RIPK1 autophosphorylation, phosphorylation of RIPK3 and MLKL; test: Regulation of RIPK1 signaling pathway (Western blot); assay type: cell-based; conditions: TNF α/Smac mimetic/Z-VAD-FMK induced, FIG. 4
Description: TNF α was purchased from PeproTech Inc., Smac mimetic and Z-VAD-FMK was purchased from Selleck Inc., RIPA lysis buffer was purchased from Beyotime Institute of Biotechnology, cocktail was purchased from MedChemExpress (MCE) Limited, PMSF protease inhibitors, sodium dodecylsulfonate SDS, and glycine were purchased from Sigma Inc., acrylamide, tris(hydroxymethyl)aminomethane Tris, ammonium persulfate APS and N,N,N′,N′-tetramethyl ethylenediamine TEMED were purchased from Wuhan Servicebio Technology Co., Ltd.
Extraction of total cellular protein: after the cells were treated by adding the corresponding concentration of Compounds 94 and 46 or blank vehicle to the cell supernatant and induced with TNF α/Smac mimetic/Z-VAD-FMK combination for a certain period of time, the supernatant was discarded, followed by washing three times with pre-cooled PBS or normal saline, then an appropriate volume of RIPA lysis buffer (containing 1% cocktail and 1% PMSF protease inhibitor) was added, the mixture was immediately placed on ice horizontally for lysis of 15 min, then the cell lysis buffer was scraped with a scraper and transferred to a 1.5 ml EP tube, and the cells were disrupted with a sonicator. The tubes were then centrifuged in a low temperature high speed centrifuge (12000 rpm, 15 min) to remove cell debris. […]

TNF α-induced SIRS = test: TNF α-induced mouse SIRS model; assay type: in vivo; conditions: 40 mg/kg oral once before TNF α 500 μg/kg i.v.
Description: TNF α formulated in sterile normal saline was administered at a dose of 500 μg/kg by tail vein injection for modeling. The body temperature of the mice was measured by an infrared electric thermometer. The orally-administrated vehicle was 25% castor oil in ethanol and 75% normal saline. Compounds 94 and 46 and RIPK1 positive compound GSK2982772 were administered orally before modeling with a dose of 40 mg/kg. Body temperature and the survival of mice were recorded every hour and recorded for 24 h and 48 h after 11 h.
This experiment established a TNF α-induced SIRS mouse model to evaluate the in vivo activity of compounds of the present invention. TNF α formulated in sterile normal saline was administered to mice at a dose of 500 μg/kg by tail vein injection for modeling. Since the measurement of rectal temperature would cause mechanical injury to mice and may interfere with the experimental results, an infrared electric thermometer was used to measure the body temperature of mice and the survival condition was observed. Compounds 94 and 46 were administered at a dose of 40 mg/kg once prior to modeling. The Vehicle group was given the corresponding vehicle control.

[3] = TNF α/Smac mimetic/Z-VAD-FMK induced 24 h, CCK8, read-out: HT-29 (EC50)

RIPK1, sequence (Q13546 whole entry): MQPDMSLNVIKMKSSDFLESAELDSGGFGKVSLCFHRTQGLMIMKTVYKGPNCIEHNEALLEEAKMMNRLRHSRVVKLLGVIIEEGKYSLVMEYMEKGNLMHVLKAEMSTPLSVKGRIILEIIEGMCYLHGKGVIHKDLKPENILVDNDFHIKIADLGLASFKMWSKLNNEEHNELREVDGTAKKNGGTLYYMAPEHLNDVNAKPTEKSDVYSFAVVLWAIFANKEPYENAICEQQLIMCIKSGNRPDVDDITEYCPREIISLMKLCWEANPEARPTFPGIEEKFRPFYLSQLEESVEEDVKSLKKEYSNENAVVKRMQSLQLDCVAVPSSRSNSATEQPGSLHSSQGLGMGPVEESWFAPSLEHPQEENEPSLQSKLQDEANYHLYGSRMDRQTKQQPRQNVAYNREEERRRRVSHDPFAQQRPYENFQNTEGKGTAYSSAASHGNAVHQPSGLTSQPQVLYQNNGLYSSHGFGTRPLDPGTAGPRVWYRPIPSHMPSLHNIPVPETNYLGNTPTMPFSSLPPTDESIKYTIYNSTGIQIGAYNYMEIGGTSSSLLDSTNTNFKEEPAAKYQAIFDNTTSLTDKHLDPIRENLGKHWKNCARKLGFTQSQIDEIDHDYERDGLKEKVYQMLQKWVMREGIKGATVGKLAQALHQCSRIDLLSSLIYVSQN

| Compound | IC50 (RIPK1) | AUC(0-t) [1] | Cmax [1] | Tmax [1] | bioavailability [1] | half-life [1] | EC50 (HT-29 cells; [3]) | Death of mice (DSS-induced colitis) | Body weight of mice (DSS-induced colitis; FIG. 6) | Effect on necrotic signaling pathway (RIPK1 autophosphorylation, RIPK3 and MLKL phosphorylation) [2] | Overall mortality (TNF α-induced SIRS; compared with Vehicle group) | Body temperature of mice (TNF α-induced SIRS; within 11 h) | EC50 (HT-29 cells; TSZ-induced, FIG. 3, read-out: EC50 value, programmed necrosis model of HT-29) |
| --- | --- | --- | --- | --- | --- | --- | --- | --- | --- | --- | --- | --- | --- |
| Cn1cc(C(=O)N2CCCC2c2cccc(F)c2)c2cc(-c3ccn4nc(NC(=O)C5CC5)nc4c3)ccc21 (stereo not drawn) [Compound 168] | 10 to 100 nM | 15300 ng·h/mL | 6360 ng/mL | 0.33 h | 60.9% | 3.1 h | < 1 nM |  |  |  |  |  |  |
| Cn1cc(C(=O)N2CCC[C@H]2c2ccc(F)c(F)c2)c2cc(-c3ccn4nc(NC(=O)C5CC5)nc4c3)ccc21 [Compound 191] | < 1 nM | 4560 ng·h/mL | 2130 ng/mL | 0.33 h | 20.4% | 4.67 h | < 1 nM |  |  |  |  |  |  |
| GSK3145095 [reference compound] |  |  |  |  |  |  |  | occurrence of murine death | continuous declination in body weight |  |  |  |  |
| Cn1cc(C(=O)N2CCC[C@H]2c2ccc(F)cc2)c2cc(-c3ccn4nc(NC(=O)C5CC5)nc4c3)ccc21 [Compound 174] | 1 to 10 nM | 11500 ng·h/mL | 3840 ng/mL | 0.42 h | 35% | 1.99 h | < 1 nM |  |  |  |  |  |  |
| C[C@H](NC(=O)c1cn(C)c2ccc(-c3ccc4nc(NC(=O)C5CC5)sc4c3)cc12)c1cccc(F)c1 [Compound 46] | 10 to 100 nM |  |  |  |  |  | < 1 nM |  |  | affected the phosphorylation of RIPK3 and MLKL downstream of RIPK1 by inhibiting its autophosphorylation | significantly reduced | relatively normal | 0.07 nM |
| Cn1cc(C(=O)N2CCC[C@H]2c2cccc(Cl)c2)c2cc(-c3ccn4nc(NC(=O)C5CC5)nc4c3)ccc21 [Compound 193] | 10 to 100 nM | 14800 ng·h/mL | 2880 ng/mL | 2.25 h | 31.7% | 2.74 h | 10 to 100 nM |  |  |  |  |  |  |
